system: genotype A, "Long" strain RSV; experiment: RSV-A in vitro cytoprotection assay in HEp-2 cells (ATPlite readout of cell viability); type: cell-based, Human respiratory syncytial virus; conditions: HEp-2 cells, genotype A “Long” strain RSV, cytoprotection; read-out: Human RSV-A (“Long” strain) EC50
From the text: RSV is a single stranded negative sense RNA virus that causes respiratory tract infections which can be dangerous to infants, the elderly, and immunosuppressed individuals. Currently there is no vaccine, and therapeutic options are both costly and of limited effectiveness. These approved treatments are Ribavirin, and Palivizumab/Synagis (a monoclonal antibody). RSV has two genotypes, A and B, which differ primarily in the structure of the virus' surface “G” attachment protein. Our current primary screen focuses on RSV-A and uses an in vitro cytoprotection assay where compounds are added in 2-fold dilutions to cells which are then subjected to fully replicative viral particles. Cell viability is measured several days later along with separate measurements of compound cytotoxicity. This report focuses on the results of our most recent screening of compounds.
HEp-2 cells, (originally derived from tumors grown in irradiated-cortisonised weanling rats that had been injected with epidermoid carcinoma tissue from a person's larynx, but later found to be indistinguishable from HeLa cells by PCR DNA analysis), were used for the culturing of genotype A, “Long” strain RSV. Flasks were inoculated with RSV and viral stocks were collected once cytopathic effect (CPE) was greater than 90%. Viral stocks in 25% sucrose media were snap frozen using liquid nitrogen to increase viral stability. Viral stock titers were quantified by tissue culture infectious dose 50% (TCID50) using 8,000 cells per well and 3-fold viral dilutions across a 96-well plate, cultured for 4 days.
Following extensive parameter testing, the final assay is run as follows: HEp-2 cells are seeded into the inner 60 wells of a 96-well plate at 8,000 cells per well in a volume of 50 μL using Growth Media (DMEM without phenol red, 1% L-Glut, 1% Penn/Strep, 1% nonessential amino acids, 10% FBS). 2-Fold serial dilutions of control and test compounds are added to the wells in duplicate in a total volume of 25 μL. Viral stock is then added to the wells in a volume of 25 μL, bringing the total volume of each well to 100 μL. Each 96-well plate has a control column of 6 wells with cells and virus but no compound (negative control, max CPE), a column with cells but no compound or virus (positive control, minimum CPE), and a column with no cells or virus or compound (background plate/reagent control). The control wells with cells but no virus are given an additional 25 uL of growth media containing an equal quantity of sucrose as those wells receiving the viral stock in order to keep consistent in media and volume conditions. The outer wells of the plate are filled with 125 μL of growth media to act as a thermal and evaporative moat around the test wells. Following a 4-day incubation period, the plates are read using ATPlite (50 uL added per well), which quantifies the amount of ATP (a measure of cell health) present in each well. Assay plates are read using the Envision luminometer. In parallel, cytotoxicity is examined on an additional 96-well plate treated in an identical manner, but substituting the 25 μL of viral stock for 25 μL of growth media. […] EC50 ranges are as follows: A <0.4 μM; B 0.4-0.8 μM; C >0.8 μM.

SMILES | EC50 [nM]
O=C(NC1CC1)c1cc2c(s1)-c1ccccc1N(C(=O)c1cccc(-c3cnn(C4CCOCC4)c3)n1)CC2 [Example 150] | > 800

same assay, conditions: human respiratory syncytial virus, HEp-2, HEp-2 cells, genotype A “Long” strain RSV, cytoprotection; read-out: Human RSV-A (“Long” strain) EC50

SMILES | EC50 [nM]
Cc1cccc(F)c1NC(=O)c1cc2c(s1)-c1ccccc1N(C(=O)c1cccc(NCc3ccco3)n1)CC2 [Example 335] | < 400
O=C(NC1CC1)c1cc2c(s1)-c1ccccc1N(C(=O)c1ccc(F)c(N3CCCOCC3)n1)CC2 [Example 45] | < 400
Cc1cccc(F)c1NC(=O)c1cc2c(s1)-c1ccccc1N(C(=O)c1cccc(-n3nnc4ncccc43)n1)CC2 [Example 123] | > 800
Cc1cccc(F)c1NC(=O)c1cc2c(s1)-c1ccccc1N(C(=O)c1cccc(N3C[C@@H]4CC(F)(F)C[C@@H]4C3)n1)CC2 [Example 449] | > 800
O=C(NC1CC1)c1cc2c(s1)-c1ccccc1N(C(=O)c1cccc(-c3cccnc3)n1)CC2 [Example 154] | > 800
Cc1cnc2[nH]cc(-c3cccc(C(=O)N4CCc5cc(C(=O)Nc6c(C)cccc6F)sc5-c5ccccc54)n3)c2c1 [Example 245] | < 400
Cc1cccc(F)c1NC(=O)c1cc2c(s1)-c1c(F)cccc1N(C(=O)c1cccc(N3CCOc4ccccc4C3)n1)CC2 [Example 489] | < 400
Cc1cccc(F)c1NC(=O)c1cc2c(s1)-c1ccccc1N(C(=O)c1cccc(N3CC4CCC(C4)C3)n1)CC2 [Example 443] | > 800
COc1ccc(-c2cccc(C(=O)N3CCc4cc(C(=O)NC5CC5)sc4-c4ccccc43)n2)cc1 [Example 62] | 400 to 800
Nc1cccc2c1C(=O)N(c1cccc(C(=O)N3CCc4cc(C(=O)NC5CC5)sc4-c4ccccc43)n1)C2 [Example 413] | > 800
COc1ccc(-c2cccc(C(=O)N3CCc4cc(C(=O)NC5CC5)sc4-c4ccccc43)c2)cc1 [Example 5] | 400 to 800
COCCn1cc(-c2cccc(C(=O)N3CCc4cc(C(=O)NC5CC5)sc4-c4ccccc43)n2)cn1 [Example 160] | > 800
Cc1cccc(F)c1NC(=O)c1cc2c(o1)-c1ccccc1N(C(=O)c1cccc(-c3c[nH]nc3C3CC3)n1)CC2 [Example 275] | < 400
O=C(Nc1ccccn1)c1cc2c(s1)-c1ccccc1N(C(=O)c1cccc(N3CCOc4ccccc4C3)n1)CC2 [Example 300] | > 800
O=C(NC1CC1)c1cc2c(s1)-c1ccccc1N(C(=O)c1cccc(N3CCOc4ccc(Cl)cc4C3)n1)CC2 [Example 279] | < 400
Cc1cccc(F)c1NC(=O)c1cc2c(s1)-c1ccccc1N(C(=O)c1cccc(N(C)Cc3ccc4ccccc4c3)n1)CC2 [Example 354] | > 800
Cc1cccc(F)c1NC(=O)c1cc2c(s1)-c1ccccc1N(C(=O)c1cccc(N3CCC[C@@H]3c3ccccn3)n1)CC2 [Example 484] | < 400
Cc1cccnc1NC(=O)c1cc2c(s1)-c1ccccc1N(C(=O)c1cccc(N3CCOc4ccccc4C3)n1)CC2 [Example 301] | < 400
COC[C@H]1CCCN1c1cccc(C(=O)N2CCc3cc(C(=O)Nc4c(C)cccc4F)sc3-c3ccc(Br)cc32)n1 [Example 498] | < 400
O=C(NC1CC1)c1cc2c(s1)-c1ccccc1N(C(=O)c1cccc(-c3cnn(C4CCOC4)c3)n1)CC2 (centres unmarked) [Example 159] | > 800
Cc1cccc(F)c1NC(=O)c1cc2c(s1)-c1ccc(F)cc1N(C(=O)c1cccc(N(C)C[C@H]3CCCO3)n1)CC2 [Example 491] | < 400
Cc1cccc(F)c1NC(=O)c1cc2c(s1)-c1ccccc1N(C(=O)c1cccc(-c3cn(C(=O)OC(C)(C)C)c4c(C)cccc34)n1)CC2 [Example 252] | > 800
CNC(=O)CCN(C)c1cccc(C(=O)N2CCc3cc(C(=O)Nc4c(C)cccc4F)sc3-c3ccccc32)n1 [Example 324] | 400 to 800

SMILES | EC50 [nM]
O=C(NC1CC1)c1cc2c(s1)-c1ccccc1N(C(=O)c1cccc(-c3ccnc(N4CCCOCC4)c3)n1)CC2 [Example 86] | < 400
Cc1cccc(F)c1NC(=O)c1cc2c(s1)-c1ccccc1N(C(=O)c1cccc(-c3ccc4c(c3)CN(C)C4=O)n1)CC2 [Example 195] | < 400
Cn1ccc(-c2cccc(C(=O)N3CCc4cc(C(=O)Nc5ccccc5N)sc4-c4ccccc43)n2)n1 [Example 240] | > 800
Cc1cccc(F)c1NC(=O)c1cc2c(s1)-c1ccccc1N(C(=O)c1cccc(N3CCC4C(C3)C4(F)F)n1)CC2 (centres unmarked) [Example 374] | 400 to 800
Cc1cccc(F)c1NC(=O)c1cc2c(s1)-c1ccccc1N(C(=O)c1cccc(-c3cn(C(=O)OC(C)(C)C)c4c(Cl)cccc34)n1)CC2 [Example 250] | 400 to 800
COc1cccc(Nc2cccc(C(=O)N3CCc4cc(C(=O)NC5CC5)sc4-c4ccccc43)n2)n1 [Example 409] | > 800
Cc1cccc(F)c1NC(=O)c1cc2c(s1)-c1ccccc1N(C(=O)c1cccc(-c3cn(CC(N)=O)nc3C3CC3)n1)CC2 [Example 230] | > 800
Cc1cccc(F)c1NC(=O)c1cc2c(s1)-c1ccccc1N(C(=O)c1cccc(N3CCCN(C(=O)OC(C)(C)C)CC3)n1)CC2 [Example 380] | < 400
Cc1cccc(F)c1NC(=O)c1cc2c(s1)-c1ccccc1N(C(=O)c1cccc(N3CCCS(=O)(=O)c4ccccc43)n1)CC2 [Example 406] | 400 to 800
O=C(NC1CC1)c1cc2c(s1)-c1ccccc1N(C(=O)c1cccc(Nc3cccc4c3C(=O)NC4)n1)CC2 [Example 411] | > 800
Cc1cc(CNc2cccc(C(=O)N3CCc4cc(C(=O)Nc5c(C)cccc5F)sc4-c4ccccc43)n2)on1 [Example 349] | < 400
Cc1cccc(F)c1NC(=O)c1cc2c(s1)-c1ccccc1N(C(=O)c1cccc(-c3cn[nH]c3)n1)CC2 [Example 213] | < 400
Cc1cccc(F)c1NC(=O)c1cc2c(s1)-c1ccccc1N(C(=O)c1cccc(-c3ccc4nccc(Cl)c4c3)n1)CC2 [Example 189] | > 800
Cc1cccc(F)c1NC(=O)c1ccc2c(c1)CCN(C(=O)c1cccc(N3CCCOCC3)n1)c1ccccc1-2 [Example 396] | > 800
Cc1cccc(F)c1NC(=O)c1cc2c(s1)-c1ccccc1N(C(=O)c1cccc(N(C)CCNC(=O)OC(C)(C)C)n1)CC2 [Example 370] | 400 to 800
Cc1cccc(F)c1NC(=O)c1cc2c(s1)-c1ccccc1N(C(=O)c1cccc(N3CCS(=O)(=O)c4ccccc4[C@H]3C)n1)CC2 [Example 433] | > 800
Cc1cccc(F)c1NC(=O)c1cc2c(s1)-c1ccccc1N(C(=O)c1cccc(N[C@H]3CCCNC3=O)n1)CC2 [Example 477] | > 800
Cc1cccc(F)c1NC(=O)c1cc2c(s1)-c1ccccc1N(C(=O)c1cccc(N3CC(S(C)(=O)=O)C3)n1)CC2 [Example 441] | > 800
COc1ccc(-n2cncc2-c2cccc(C(=O)N3CCc4cc(C(=O)Nc5c(C)cccc5F)sc4-c4ccccc43)n2)cc1 [Example 204] | > 800
CCOC(=O)n1cc(-c2cccc(C(=O)N3CCc4cc(C(=O)Nc5c(C)cccc5F)sc4-c4ccccc43)n2)c(C2CC2)n1 [Example 224] | < 400
COCC(C)(C)CNc1cccc(C(=O)N2CCc3cc(C(=O)NC4CC4)sc3-c3ccccc32)n1 [Example 321] | > 800
Cc1cccc(F)c1NC(=O)c1cc2c(s1)-c1ccccc1N(C(=O)c1cccc(-c3cn(CCS(C)(=O)=O)nc3C3CC3)n1)CC2 [Example 227] | > 800
Cc1cccc(F)c1NC(=O)c1cc2c(s1)-c1ccccc1N(C(=O)c1cccc(N3CCOc4ccccc4C3)n1)CC2 [Example 363] | < 400
